Measurements from article PMC4620497 (Scientific Reports, 2015).

Columns and labels:
[1] = molecular target: T1, QSK (Homo sapiens, UniProt Q9Y2K2); test: KINOMEscan panel screen; format: binding; conditions: read-out: Percent Control(%)
T1 construct: purchased DiscoveRx KINOMEscan (Ambit Biosciences)

[2] = molecular target: T2, NEK4 (Homo sapiens, UniProt P51957); test: KINOMEscan panel screen; format: binding; conditions: read-out: Percent Control(%)
T2 construct: purchased DiscoveRx KINOMEscan (Ambit Biosciences)

[3] = molecular target: T3, CDK4-cyclinD3 (Homo sapiens, UniProt P11802); test: KINOMEscan panel screen; format: binding; conditions: read-out: Percent Control(%)
T3 construct: purchased DiscoveRx KINOMEscan (Ambit Biosciences)

[4] = molecular target: T4, PIP5K2B (Homo sapiens, UniProt P78356); test: KINOMEscan panel screen; format: binding; conditions: read-out: Percent Control(%)
T4 construct: purchased DiscoveRx KINOMEscan (Ambit Biosciences)
T4 sequence (P78356 whole entry): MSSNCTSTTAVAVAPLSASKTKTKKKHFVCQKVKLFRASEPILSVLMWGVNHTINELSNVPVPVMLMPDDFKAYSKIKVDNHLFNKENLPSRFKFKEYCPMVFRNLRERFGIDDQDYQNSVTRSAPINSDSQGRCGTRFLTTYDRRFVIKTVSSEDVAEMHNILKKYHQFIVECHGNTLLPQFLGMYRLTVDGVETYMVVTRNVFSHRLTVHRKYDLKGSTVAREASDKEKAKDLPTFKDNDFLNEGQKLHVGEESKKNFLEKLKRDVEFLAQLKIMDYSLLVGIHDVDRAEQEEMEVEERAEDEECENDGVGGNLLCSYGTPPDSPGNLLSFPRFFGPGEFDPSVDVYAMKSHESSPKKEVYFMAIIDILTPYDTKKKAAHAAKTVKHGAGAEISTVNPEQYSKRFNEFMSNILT

[5] = tested on: HSCs (LSK cells), WBC and RBC; test: Influence on normal HSCs and blood cells in Balb/c mice; format: in vivo, mouse; conditions: Balb/c mice, 1, 3, 10 mg/kg/d orally for 21 days
Method: To examine whether SKLB-677 has influence on normal HSCs and normal blood cells, we performed an experiment using a Balb/c mouse model, in which Balb/c mice (n = 8 in each group) were treated with indicated concentrations of SKLB-677 for 21 days, followed by detections of the proportion of HSCs (immunophenotypically characterized as Lineage^−Sca-1^+ c-Kit^+ (LSK) cells), white blood cell (WBC) and red blood cell (RBC) counts. […]
were d etected usin g BD FACSAriaⅢflow c ytometer.
Isolation of murine Bone Marrow ( BM) cells.
Balb/c mice were grouped to 4 groups (4 female mice and 4 male mice p er group) and orally treated with 0, 1, 3, and 10m g/kg/ d SKLB -677 for 21 da ys . […]
Supplementary Figure S7.The influence of SKLB -677 on mouse normal HSC and blood cells (8 mice in each group) . a ,b, The mice were o rally treat ed with indicated concentr ations o f S K LB -677 for 21d, and then W BC and RBC were counted using a blood anal yzer instrument. ns, not statistically significant. c , Th e mice were orally treated with indicated do ses of SK LB-677 for 21d, and the blood marrow cells were collected for the detection of HSC (immunophenot ypicall y ch aracterized as Lineage-Sca-1+c-Kit+, LSK) populationusing corresponding antibodies. d, The statistical data of HSC numbers. ns, not statistically significant. […]

[6] = molecular target: T5, FLT3-autoinhibited (Homo sapiens, UniProt P36888); test: KINOMEscan panel screen; format: binding; conditions: read-out: Percent Control(%)
T5 construct: purchased DiscoveRx KINOMEscan (Ambit Biosciences)
T5 sequence (P36888 564-993 limits assumed): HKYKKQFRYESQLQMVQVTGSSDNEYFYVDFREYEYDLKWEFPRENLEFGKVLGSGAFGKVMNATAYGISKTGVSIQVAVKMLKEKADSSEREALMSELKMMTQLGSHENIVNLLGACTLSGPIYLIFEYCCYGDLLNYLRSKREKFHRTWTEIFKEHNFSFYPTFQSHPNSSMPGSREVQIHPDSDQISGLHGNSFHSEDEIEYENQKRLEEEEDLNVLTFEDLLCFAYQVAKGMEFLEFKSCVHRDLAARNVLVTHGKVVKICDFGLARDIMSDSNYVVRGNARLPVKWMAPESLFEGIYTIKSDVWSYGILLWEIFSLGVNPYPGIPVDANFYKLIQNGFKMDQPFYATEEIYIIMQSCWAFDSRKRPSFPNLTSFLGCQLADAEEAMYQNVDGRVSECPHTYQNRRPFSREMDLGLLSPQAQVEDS

[7] = molecular target: T6, MAPKAPK5 (Homo sapiens, UniProt Q8IW41); test: KINOMEscan panel screen; format: binding; conditions: read-out: Percent Control(%)
T6 construct: purchased DiscoveRx KINOMEscan (Ambit Biosciences)

[8] = molecular target: T7, CDC2L1 (Homo sapiens, UniProt P21127); test: KINOMEscan panel screen; format: binding; conditions: read-out: Percent Control(%)
T7 construct: purchased DiscoveRx KINOMEscan (Ambit Biosciences)

[9] = molecular target: T8, PIK3CA(C420R) (Homo sapiens, UniProt P42336, C420R); test: KINOMEscan panel screen; format: binding; conditions: read-out: Percent Control(%)
T8 construct: purchased DiscoveRx KINOMEscan (Ambit Biosciences)

[10] = molecular target: T9, PIK3C2B (Homo sapiens, UniProt O00750); test: KINOMEscan panel screen; format: binding; conditions: read-out: Percent Control(%)
T9 construct: purchased DiscoveRx KINOMEscan (Ambit Biosciences)

[11] = molecular target: T10, DDR1 (Homo sapiens, UniProt Q08345); test: KINOMEscan panel screen; format: binding; conditions: read-out: Percent Control(%)
T10 construct: purchased DiscoveRx KINOMEscan (Ambit Biosciences)

[12] = molecular target: LCK (Homo sapiens, UniProt P06239); test: KINOMEscan kinase binding assay (Kd)
Sequence of LCK (P06239 whole entry): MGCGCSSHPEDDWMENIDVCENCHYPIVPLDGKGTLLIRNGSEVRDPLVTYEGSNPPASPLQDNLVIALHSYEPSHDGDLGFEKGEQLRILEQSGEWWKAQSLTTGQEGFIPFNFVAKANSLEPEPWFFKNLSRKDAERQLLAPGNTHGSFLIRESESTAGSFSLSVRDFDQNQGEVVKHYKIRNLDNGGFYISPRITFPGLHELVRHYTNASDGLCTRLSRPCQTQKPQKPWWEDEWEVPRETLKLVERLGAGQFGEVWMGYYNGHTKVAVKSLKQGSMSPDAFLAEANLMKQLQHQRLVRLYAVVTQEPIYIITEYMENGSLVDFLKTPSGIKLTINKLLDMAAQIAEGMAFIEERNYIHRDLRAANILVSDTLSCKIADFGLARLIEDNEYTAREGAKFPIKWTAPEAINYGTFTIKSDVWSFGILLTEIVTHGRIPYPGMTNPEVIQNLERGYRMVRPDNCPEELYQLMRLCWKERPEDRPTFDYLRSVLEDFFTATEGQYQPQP

[13] = molecular target: T11, JAK2(JH1domain-catalytic) (Homo sapiens, UniProt O60674); test: KINOMEscan panel screen; format: binding; conditions: read-out: Percent Control(%)
T11 construct: JAK2(JH1domain-catalytic); purchased DiscoveRx KINOMEscan (Ambit Biosciences)
T11 sequence (O60674 849-1124 limits assumed): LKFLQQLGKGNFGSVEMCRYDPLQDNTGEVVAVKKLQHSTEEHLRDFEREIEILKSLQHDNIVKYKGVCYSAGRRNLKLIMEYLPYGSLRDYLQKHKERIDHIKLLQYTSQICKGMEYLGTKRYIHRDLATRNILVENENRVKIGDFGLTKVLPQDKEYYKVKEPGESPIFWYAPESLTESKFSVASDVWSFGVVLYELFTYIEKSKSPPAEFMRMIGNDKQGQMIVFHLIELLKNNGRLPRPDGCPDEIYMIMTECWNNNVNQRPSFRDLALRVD

[14] = molecular target: T12, FRK (Homo sapiens, UniProt P42685); test: KINOMEscan panel screen; format: binding; conditions: read-out: Percent Control(%)
T12 construct: purchased DiscoveRx KINOMEscan (Ambit Biosciences)
T12 sequence (P42685 whole entry): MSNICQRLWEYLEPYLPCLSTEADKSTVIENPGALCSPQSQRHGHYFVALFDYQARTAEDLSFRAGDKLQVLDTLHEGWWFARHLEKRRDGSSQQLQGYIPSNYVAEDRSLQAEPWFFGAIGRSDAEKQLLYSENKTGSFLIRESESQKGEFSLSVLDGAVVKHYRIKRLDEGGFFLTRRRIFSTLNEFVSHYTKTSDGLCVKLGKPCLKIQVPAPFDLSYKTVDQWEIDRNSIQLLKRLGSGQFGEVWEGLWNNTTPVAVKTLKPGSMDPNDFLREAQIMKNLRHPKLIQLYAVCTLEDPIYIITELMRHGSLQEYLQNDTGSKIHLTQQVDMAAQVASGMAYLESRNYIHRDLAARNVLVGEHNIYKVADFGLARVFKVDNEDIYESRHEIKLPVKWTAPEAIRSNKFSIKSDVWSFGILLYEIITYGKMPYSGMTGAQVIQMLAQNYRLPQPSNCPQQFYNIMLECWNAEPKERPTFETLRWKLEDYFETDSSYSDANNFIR

[15] = molecular target: ERN1 (Homo sapiens, UniProt O75460); test: KINOMEscan panel screen; format: binding; conditions: read-out: Percent Control(%)
[16] = molecular target: T13, PYK2 (Homo sapiens, UniProt Q14289); test: KINOMEscan panel screen; format: binding; conditions: read-out: Percent Control(%)
T13 construct: purchased DiscoveRx KINOMEscan (Ambit Biosciences)
T13 sequence (Q14289 whole entry): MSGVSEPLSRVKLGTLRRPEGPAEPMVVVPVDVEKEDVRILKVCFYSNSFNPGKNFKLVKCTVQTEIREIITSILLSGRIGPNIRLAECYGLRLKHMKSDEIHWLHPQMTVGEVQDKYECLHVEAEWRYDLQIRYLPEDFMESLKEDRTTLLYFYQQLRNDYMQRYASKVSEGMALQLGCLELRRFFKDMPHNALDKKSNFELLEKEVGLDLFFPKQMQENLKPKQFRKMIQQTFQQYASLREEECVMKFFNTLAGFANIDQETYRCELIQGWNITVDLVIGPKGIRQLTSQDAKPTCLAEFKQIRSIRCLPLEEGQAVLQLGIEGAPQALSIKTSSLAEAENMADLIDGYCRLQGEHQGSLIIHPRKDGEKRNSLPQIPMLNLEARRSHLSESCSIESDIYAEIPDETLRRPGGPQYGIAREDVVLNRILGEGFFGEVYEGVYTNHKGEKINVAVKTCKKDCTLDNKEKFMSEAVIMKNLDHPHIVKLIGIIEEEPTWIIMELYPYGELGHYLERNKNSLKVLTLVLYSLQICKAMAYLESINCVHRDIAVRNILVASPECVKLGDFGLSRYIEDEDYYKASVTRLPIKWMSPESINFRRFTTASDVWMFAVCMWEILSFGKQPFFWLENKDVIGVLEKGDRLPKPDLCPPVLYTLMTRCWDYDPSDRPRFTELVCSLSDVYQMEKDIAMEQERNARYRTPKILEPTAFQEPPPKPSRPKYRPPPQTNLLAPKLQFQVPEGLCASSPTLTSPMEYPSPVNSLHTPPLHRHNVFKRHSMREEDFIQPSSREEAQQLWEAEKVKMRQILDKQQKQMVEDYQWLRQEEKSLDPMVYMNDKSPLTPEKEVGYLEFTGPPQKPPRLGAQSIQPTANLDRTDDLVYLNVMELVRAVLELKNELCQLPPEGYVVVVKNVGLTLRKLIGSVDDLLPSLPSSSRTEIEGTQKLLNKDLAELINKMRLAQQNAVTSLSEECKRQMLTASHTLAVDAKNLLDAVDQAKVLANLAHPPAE

[17] = molecular target: T14, PFTK1 (Homo sapiens, UniProt O94921); test: KINOMEscan panel screen; format: binding; conditions: read-out: Percent Control(%)
T14 construct: purchased DiscoveRx KINOMEscan (Ambit Biosciences)

[18] = molecular target: T15, p38-gamma (Homo sapiens, UniProt P53778); test: KINOMEscan panel screen; format: binding; conditions: read-out: Percent Control(%)
T15 construct: purchased DiscoveRx KINOMEscan (Ambit Biosciences)

[19] = molecular target: T16, BRAF (Homo sapiens, UniProt P15056); test: KINOMEscan panel screen; format: binding; conditions: read-out: Percent Control(%)
T16 construct: purchased DiscoveRx KINOMEscan (Ambit Biosciences)

[20] = molecular target: T17, TBK1 (Homo sapiens, UniProt Q9UHD2); test: KINOMEscan panel screen; format: binding; conditions: read-out: Percent Control(%)
T17 construct: purchased DiscoveRx KINOMEscan (Ambit Biosciences)
T17 sequence (Q9UHD2 whole entry): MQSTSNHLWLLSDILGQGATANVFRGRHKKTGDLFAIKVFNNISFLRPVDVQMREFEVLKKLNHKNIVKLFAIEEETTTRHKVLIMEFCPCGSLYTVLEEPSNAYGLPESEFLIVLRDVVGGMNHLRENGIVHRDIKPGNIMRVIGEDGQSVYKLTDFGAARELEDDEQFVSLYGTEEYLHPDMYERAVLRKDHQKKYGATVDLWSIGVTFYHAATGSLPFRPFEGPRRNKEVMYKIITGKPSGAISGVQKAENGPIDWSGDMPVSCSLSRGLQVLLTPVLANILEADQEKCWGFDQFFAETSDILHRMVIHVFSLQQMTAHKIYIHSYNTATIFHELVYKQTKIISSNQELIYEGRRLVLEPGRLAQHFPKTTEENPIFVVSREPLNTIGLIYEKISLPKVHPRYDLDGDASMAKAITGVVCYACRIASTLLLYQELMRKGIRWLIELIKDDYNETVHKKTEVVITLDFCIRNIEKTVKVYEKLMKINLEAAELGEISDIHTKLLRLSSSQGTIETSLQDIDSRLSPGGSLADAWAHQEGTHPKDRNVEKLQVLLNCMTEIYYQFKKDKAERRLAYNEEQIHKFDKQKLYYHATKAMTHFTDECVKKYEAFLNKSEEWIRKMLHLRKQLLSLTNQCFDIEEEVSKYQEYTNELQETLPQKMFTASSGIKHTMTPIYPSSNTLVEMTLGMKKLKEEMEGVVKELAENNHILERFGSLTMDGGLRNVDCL

[21] = molecular target: T18, RET(V804L) (Homo sapiens, UniProt P07949, V804L); test: KINOMEscan panel screen; format: binding; conditions: read-out: Percent Control(%)
T18 construct: purchased DiscoveRx KINOMEscan (Ambit Biosciences)

[22] = molecular target: T19, DYRK1A (Homo sapiens, UniProt Q13627); test: KINOMEscan panel screen; format: binding; conditions: read-out: Percent Control(%)
T19 construct: purchased DiscoveRx KINOMEscan (Ambit Biosciences)

[23] = molecular target: T20, ABL2 (Homo sapiens, UniProt P42684); test: KINOMEscan panel screen; format: binding; conditions: read-out: Percent Control(%)
T20 construct: purchased DiscoveRx KINOMEscan (Ambit Biosciences)

[24] = molecular target: T21, BMX (Homo sapiens, UniProt P51813); test: KINOMEscan panel screen; format: binding; conditions: read-out: Percent Control(%)
T21 construct: purchased DiscoveRx KINOMEscan (Ambit Biosciences)

[25] = tested on: EGFR(L747-T751del,Sins); test: KINOMEscan panel screen; format: binding; conditions: 10 μM
[26] = molecular target: T22, ERK4 (Homo sapiens, UniProt P31152); test: KINOMEscan panel screen; format: binding; conditions: read-out: Percent Control(%)
T22 construct: purchased DiscoveRx KINOMEscan (Ambit Biosciences)

[27] = molecular target: T23, MAP4K5 (Homo sapiens, UniProt Q9Y4K4); test: KINOMEscan panel screen; format: binding; conditions: read-out: Percent Control(%)
T23 construct: purchased DiscoveRx KINOMEscan (Ambit Biosciences)

[28] = molecular target: T24, PIM2 (Homo sapiens, UniProt Q9P1W9); test: KINOMEscan panel screen; format: binding; conditions: read-out: Percent Control(%)
T24 construct: purchased DiscoveRx KINOMEscan (Ambit Biosciences)
T24 sequence (Q9P1W9 whole entry): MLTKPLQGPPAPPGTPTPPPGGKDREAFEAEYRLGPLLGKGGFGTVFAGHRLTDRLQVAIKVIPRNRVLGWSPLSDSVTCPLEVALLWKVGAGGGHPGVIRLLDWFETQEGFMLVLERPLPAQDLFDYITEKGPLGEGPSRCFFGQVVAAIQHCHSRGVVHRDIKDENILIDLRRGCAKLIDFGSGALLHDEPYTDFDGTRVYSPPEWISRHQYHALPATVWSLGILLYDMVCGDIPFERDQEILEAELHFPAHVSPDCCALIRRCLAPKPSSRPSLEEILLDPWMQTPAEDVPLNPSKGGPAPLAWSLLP

[29] = molecular target: T25, ZAK (Homo sapiens, UniProt Q9NYL2); test: KINOMEscan panel screen; format: binding; conditions: read-out: Percent Control(%)
T25 construct: purchased DiscoveRx KINOMEscan (Ambit Biosciences)
T25 sequence (Q9NYL2 whole entry): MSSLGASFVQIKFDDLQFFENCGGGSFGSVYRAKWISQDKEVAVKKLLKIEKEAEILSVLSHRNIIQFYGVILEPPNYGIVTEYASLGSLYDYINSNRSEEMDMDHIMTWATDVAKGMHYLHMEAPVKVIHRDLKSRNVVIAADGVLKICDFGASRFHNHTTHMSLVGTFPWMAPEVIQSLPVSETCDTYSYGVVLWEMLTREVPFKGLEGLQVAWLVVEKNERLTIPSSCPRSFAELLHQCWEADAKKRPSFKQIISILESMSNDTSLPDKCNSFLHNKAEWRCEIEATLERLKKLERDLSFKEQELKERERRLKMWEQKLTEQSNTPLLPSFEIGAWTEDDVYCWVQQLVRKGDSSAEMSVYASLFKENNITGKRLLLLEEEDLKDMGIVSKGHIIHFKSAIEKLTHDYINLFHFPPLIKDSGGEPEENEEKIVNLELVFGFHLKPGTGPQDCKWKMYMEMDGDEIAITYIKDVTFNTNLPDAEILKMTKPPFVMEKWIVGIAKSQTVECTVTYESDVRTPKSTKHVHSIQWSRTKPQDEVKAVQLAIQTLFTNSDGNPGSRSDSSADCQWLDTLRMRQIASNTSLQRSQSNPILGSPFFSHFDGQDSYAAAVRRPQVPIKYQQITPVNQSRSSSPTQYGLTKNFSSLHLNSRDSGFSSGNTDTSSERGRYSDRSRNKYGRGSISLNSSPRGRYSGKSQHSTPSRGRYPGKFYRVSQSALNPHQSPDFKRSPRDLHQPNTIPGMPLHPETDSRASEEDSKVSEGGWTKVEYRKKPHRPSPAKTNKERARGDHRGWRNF

With `CC(C)(C)c1cc(NC(=O)Nc2ccc(Oc3ncnc4[nH]ncc34)c(F)c2)no1` [SKLB-677, 1-(4-(1H-pyrazolo[3,4-d]pyrimidin-4-yloxy)-3-fluorophenyl)-3-(5-tert-butylisoxazol-3-yl)urea] the remaining binding at 10 µM [1] was 91%, the remaining binding at 10 µM [2] was 38% and the remaining binding at 10 µM [3] was 4.8%. The remaining binding at 10 µM [4] was 98%, the “HSCs (LSK cells)” value [5] was “not inhibited” and the “white and red blood counts” value [5] was “normal”. The remaining binding at 10 µM [6] was 1.2%, the remaining binding at 10 µM [7] was 97% and the remaining binding at 10 µM [8] was 66%. For the same compound, the remaining binding at 10 µM [9] was 96%, the remaining binding at 10 µM [10] was 100% and the remaining binding at 10 µM [11] was 3.6%. For the same compound, the Kd [12] was 130 nM, the remaining binding at 10 µM [13] was 31% and the remaining binding at 10 µM [14] was 0%. The remaining binding at 10 µM [15] was 100%, the remaining binding at 10 µM [16] was 64% and the remaining binding at 10 µM [17] was 0.05%. For the same compound, the remaining binding at 10 µM [18] was 3.7%, the remaining binding at 10 µM [19] was 2.7% and the remaining binding at 10 µM [20] was 70%. The remaining binding at 10 µM [21] was 0%, the remaining binding at 10 µM [22] was 80% and the remaining binding at 10 µM [23] was 13%. The remaining binding at 10 µM [24] was 73%, the “Percent Control(%)” value [25] was 61% and the remaining binding at 10 µM [26] was 98%. It also gave a remaining binding at 10 µM [27] of 2%, a remaining binding at 10 µM [28] of 37% and a remaining binding at 10 µM [29] of 1.5%.
